The source of these data is patent US20220151989A1, “LIPOIC ACID PRODRUG” (SANTEN PHARMACEUTICAL CO., LTD., priority 2019, published 2022).

Series [1] concerns anterior segment of the eye. Put plainly: Ocular Irritation Test-2: McDonald-Shadduck method, lens observation, histopathological examination. Details: key to Irritation Score of anterior segment of the eye: Discharge / Irritation Score of anterior segment of the eye: Anterior chamber flare / Irritation Score of anterior segment of the eye: Light reflex / Irritation Score of anterior segment of the eye: Iris / Irritation Score of anterior segment of the eye: Corneal opacity / Irritation Score of anterior segment of the eye: Angiogenesis / Irritation Score of anterior segment of the eye: Corneal epithelial disorder / Lens / Histopathological examination of the eye / Irritation Score of anterior segment of the eye: Conjunctival hyperemia / Irritation Score of anterior segment of the eye: Conjunctival edema: +0.5: very slight; +1: slight; +2: moderate; +3: severe; —: No noteworthy findings. Type of series: in vivo, Japanese White rabbit. As to conditions: for Histopathological examination of the eye / Irritation Score of anterior segment of the eye: Angiogenesis / Irritation Score of anterior segment of the eye: Anterior chamber flare / Irritation Score of anterior segment of the eye: Conjunctival edema / Irritation Score of anterior segment of the eye: Conjunctival hyperemia / Irritation Score of anterior segment of the eye: Corneal epithelial disorder / Irritation Score of anterior segment of the eye: Corneal opacity / Irritation Score of anterior segment of the eye: Discharge / Irritation Score of anterior segment of the eye: Iris / Irritation Score of anterior segment of the eye: Light reflex / Lens: 50 μL/eye twice per day for 2 weeks. The procedure:
Compound 1 was stirred with the addition of Vehicle C to give a 0.3% (w/v) solution, and the resulting solution was diluted with Vehicle C to give a 0.1% (w/v) solution. Further, the resulting 0.1% (w/v) solution was diluted with. Vehicle C to give a 0.03% (w/v) solution.
0.03% (w/v), 0.1% (w/v), and 0.3% (w/v) Compound 1 eye drops were each instilled into the left eye of a Japanese White rabbit at a dose of 50 μL/eye with pipette twice per day at a 6-hour interval for 2 weeks. One hour after the final instillation, ocular irritation of anterior segment of the eye was evaluated using a slit lamp according to the McDonald-Shadduck method, and the lens was observed. At the end of the treatment period, histopathological examination of the eye was performed. The contralateral eye was untreated.
The ocular irritation of anterior segment of the eye was scored according to the following criteria:
+1: slight; +2: moderate; +3: severe.

Another series relates to lens elasticity. As to the kind of experiment: Pharmacological Test-3: lens elasticity, Compounds 5 and 6, 3 times per day for 14 days. Type of series: in vivo,  mice. Here is the method:
The effects of Compounds 5 and 6 on the lens elasticity were investigated.
Compound 5 was stirred with the addition of Vehicle C to give a 0.03% (w/v) solution.
Compound 6 was stirred with the addition of Vehicle C to give a 0.03% (w/v) solution.
EV06 was stirred with the addition of Vehicle C to give a 0.03% (w/v) solution, which was used for comparison to the samples of Compounds 5 and 6.
1) Each test sample (2.5 μL/eye) was instilled into both eyes of 9-month-old […] mice with a Pipetman 3 times per day (around 9:00, 13:00 and 17:00) for 14 days. 2) After the final instillation, the mice were euthanized by carbon dioxide inhalation, and then the eyeballs were extracted and rinsed with Hank's balanced salt solution (HESS). 3) The sclera near the optic nerve was cut with a razor, the lens was removed through the incision, and the removed lens was immersed in HESS. 4) The lens was placed on a glass slide, and an all-in-one fluorescence microscope BZ-9000 (Keyence) was used to capture an image of the lens (Image a). 5) Next, one cover glass (Corning^(registered trade mark) 22×22 mm Square) was placed on the lens, and an image in which the thickness of the lens changed due to the weight was similarly captured (Image b). 6) A change in the lens diameter was calculated from the following Equation 1 wherein the lens diameter of Image a is subtracted from the lens diameter of Image b. Then, the lens elasticity improvement of each sample group compared with the vehicle control group was calculated from Equation 2 described below. The mean value of the vehicle control group was based on 8 eyes, and the mean value of each of the sample groups of Compounds 5 and 6 and EV06 was based on 10 eyes.
Change in lens diameter=Lens diameter in Image b of each test sample−Lens diameter in Image a of each test sample (Equation 1)
Lens elasticity improvement of each sample group=Mean change in lens diameter of each Test sample group−Mean change in lens diameter of Vehicle control group (Equation 2)

Turning to `CC(C)=CCOC(=O)CCCC[C@@H]1CCSS1` [Compound 1, 3-Methyl-2-buten-1-yl (R)-5-(1,2-dithiolan-3-yl)pentanoate], in series [1] (0.03% eye drop), the “Histopathological examination of the eye” value was “—”, the “Irritation Score of anterior segment of the eye: Angiogenesis” value (“Irritation Score … Angiogenesis” below) is recorded as “—”, the “Irritation Score of anterior segment of the eye: Anterior chamber flare” value (shortened to “Irritation Score … Anterior chamber flare”) is reported as “—” and the “Irritation Score of anterior segment of the eye: Conjunctival edema” value (shortened to “Irritation Score … Conjunctival edema”) was “—”. Besides, in series [1] (0.03% eye drop), the “Irritation Score of anterior segment of the eye: Conjunctival hyperemia” value (shortened to “Irritation Score … Conjunctival hyperemia”) was “—”, the “Irritation Score of anterior segment of the eye: Corneal epithelial disorder” value (shortened to “Irritation Score … Corneal epithelial disorder”) is on record as “—”, the “Irritation Score of anterior segment of the eye: Corneal opacity” value (“Irritation Score … Corneal opacity” below) is given as “—” and the “Irritation Score of anterior segment of the eye: Discharge” value (from here on “Irritation Score … Discharge”) is “—”. Also, in series [1] (0.03% eye drop), the “Irritation Score of anterior segment of the eye: Iris” value (“Irritation Score … Iris” for short) is “—”, the “Irritation Score of anterior segment of the eye: Light reflex” value (“Irritation Score … Light reflex” below) was “—” and the Lens result is “—”. In addition, the “ocular irritation” value in series [1] (0.03%, 0.1% and 0.3% eye drops, twice per day for 2 weeks) is recorded as “No ocular irritation was observed”. In addition, in series [1] (0.1% eye drop), the “Histopathological examination of the eye” value is on record as “—”, the “Irritation Score … Angiogenesis” value is “—”, the “Irritation Score … Anterior chamber flare” value is listed as “—” and the “Irritation Score … Conjunctival edema” value was “—”. In series [1] (0.1% eye drop), the “Irritation Score … Conjunctival hyperemia” value was “—”, the “Irritation Score … Corneal epithelial disorder” value is “—”, the “Irritation Score … Corneal opacity” value is on record as “—” and the “Irritation Score … Discharge” value is listed as “—”. Further, in series [1] (0.1% eye drop), the “Irritation Score … Iris” value is listed as “—”, the “Irritation Score … Light reflex” value is recorded as “—” and the Lens result is recorded as “—”. In series [1] (0.3% eye drop), the “Histopathological examination of the eye” value is listed as “—”, the “Irritation Score … Angiogenesis” value is listed as “—”, the “Irritation Score … Anterior chamber flare” value was “—” and the “Irritation Score … Conjunctival edema” value is recorded as “—”. Besides, in series [1] (0.3% eye drop), the “Irritation Score … Conjunctival hyperemia” value was “—”, the “Irritation Score … Corneal epithelial disorder” value is reported as “—”, the “Irritation Score … Corneal opacity” value is “—” and the “Irritation Score … Discharge” value is listed as “—”. In series [1] (0.3% eye drop), the “Irritation Score … Iris” value was “—”, the “Irritation Score … Light reflex” value is reported as “—” and the Lens result was “—”.

Compound `C[N+](C)(C)CCOC(=O)CCCC[C@@H]1CCSS1.[Cl-]` [EV06, Lipoic acid choline ester, reference compound] showed a Lens elasticity improvement with lens elasticity (0.03% (w/v) solution in Vehicle C, both eyes, 3 times per day for 14 days, 9-month-old mice) of 3.6 μm. Moreover, the “lens elasticity improving effect” value with lens elasticity (at a concentration of 0.03%) is recorded as “did not show lens elasticity improving effect”.
